Measurements taken from US10329294B2, “Pyrazolopyrimidine inhibitors of IRAK4 activity” (MERCK SHARP & DOHME CORP., priority 2015, dated 2019).
Counter-ions that a name gives are not always drawn.

Molecular target: IRAK4 (Homo sapiens (Human), UniProt Q9NWZ3)
Assay: IRAK4 Kinase Assay
Type: biochemical
Conditions: IMAP fluorescence polarization, 0.5 nM GST tagged IRAK4, 100 μM ATP, 30 minutes at 25° C.; read-out: IRAK4 IC50

Sequence of IRAK4 (Q9NWZ3 whole entry): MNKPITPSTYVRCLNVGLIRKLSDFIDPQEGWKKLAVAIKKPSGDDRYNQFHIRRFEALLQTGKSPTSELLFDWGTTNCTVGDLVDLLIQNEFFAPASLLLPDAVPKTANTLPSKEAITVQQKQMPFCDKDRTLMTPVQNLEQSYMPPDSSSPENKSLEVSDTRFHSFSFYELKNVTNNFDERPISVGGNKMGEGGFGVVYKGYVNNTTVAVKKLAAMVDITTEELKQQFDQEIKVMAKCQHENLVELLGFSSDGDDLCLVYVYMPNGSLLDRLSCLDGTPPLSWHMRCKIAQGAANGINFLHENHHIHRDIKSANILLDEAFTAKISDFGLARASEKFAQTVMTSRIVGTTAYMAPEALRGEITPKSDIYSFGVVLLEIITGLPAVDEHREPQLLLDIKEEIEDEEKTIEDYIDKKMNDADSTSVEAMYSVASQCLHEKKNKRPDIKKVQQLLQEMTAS

Row | Compound | IC50 [nM]
1 | O=C(Nc1cscc1C(F)F)c1cnn2ccc(N3C[C@@H]4CC[C@H]3CN4)nc12 (single isomer, unassigned) [Example 154, 5-[(1S,4S)- or (1R,4R)-2,5-diazabicyclo[2.2.2]oct-2-yl]-N-[4-(difluoromethyl)thiophen-3-yl]pyrazolo[1,5-a]pyrimidine-3-carboxamide trifluoroacetate] | 86
2 | Cn1cc(NC(=O)c2cnn3ccc(N4CCNC(C(F)(F)F)C4)nc23)c(C(F)(F)F)n1 (centres unmarked) [Example 15, N-[1-methyl-3-(trifluoromethyl)-1H-pyrazol-4-yl]-5-(3-(trifluoromethyl)piperazin-1-yl]pyrazolo[1,5-a]pyrimidine-3-carboxamide] | 113
3 | Cn1cc(NC(=O)c2cnn3ccc(N4CCNCC(F)(F)C4)nc23)c(C(F)(F)F)n1 [Example 36, 5-(6,6-difluoro-1,4-diazepan-1-yl)-N-[1-methyl-3-(trifluoromethyl)-1H-pyrazol-4-yl]pyrazolo[1,5-a]pyrimidine-3-carboxamide trifluoroacetate] | 376
4 | N[C@@H]1[C@H](Nc2ccn3ncc(C(=O)Nc4ccccc4C(F)(F)F)c3n2)CCCC1(F)F [Example 114, 5-{[(1R,2R)-2-amino-3,3-difluorocyclohexyl]amino}-N-[2-(trifluoromethyl)phenyl] pyrazolo[1,5-a]pyrimidine-3-carboxamide trifluoroacetate] | 3820
5 | Cn1cc(NC(=O)c2cnn3ccc(N[C@H]4CNCCC4(F)F)nc23)c(C(F)F)n1 (single isomer, unassigned) [Example 244, N-[(R or S)-3-(difluoromethyl)-1-methyl-1H-pyrazol-4-yl]-5-[(4,4-difluoropiperidin-3-yl)amino]pyrazolo[1,5-a]pyrimidine-3-carboxamide trifluoroacetate] | 0.5
6 | Cn1cc(NC(=O)c2cnn3ccc(N4CCNCC5(CC5)C4)nc23)c(C(F)(F)F)n1 [Example 14, 5-(5,8-diazaspiro[2.6]non-5-yl)-N-[1-methyl-3-(trifluoromethyl)-1H-pyrazol-4-yl]pyrazolo[1,5-15a]pyrimidine-3-carboxamide trifluoroacetate] | 16
7 | Cn1cc(NC(=O)c2cnn3ccc(N[C@@H]4CNCC[C@@H]4F)nc23)c(C(F)(F)F)n1 (single isomer, unassigned) [Example 230, 5-{[(3R,4S)- or (3S,4R)-4-fluoropiperidin-3-yl]amino}-N-[1-methyl-3-(trifluoromethyl)-1H-pyrazol-4-yl]pyrazolo[1,5-a]pyrimidine-3-carboxamide] | 0.5
8 | Cn1cc(NC(=O)c2cnn3ccc(N4CCCNCC4)nc23)c(C#N)n1 [Example 125, N-(3-cyano-1-methyl-1H-pyrazol-4-yl)-5-(1,4-diazepan-1-yl)pyrazolo[1,5-a]pyrimidine-3-carboxamide trifluoroacetate] | 119
9 | CC(C)(C)n1cc(NC(=O)c2cnn3ccc(N[C@@H]4CCCC[C@@H]4O)nc23)c(C(F)(F)F)n1 [Example 48, N-[1-tert-butyl-3-(trifluoromethyl)-1H-pyrazol-4-yl]-5-{[(1R,2S)-2-hydroxycyclohexyl]amino} pyrazolo[1,5-a]pyrimidine-3-carboxamide trifluoroacetate] | 259
10 | CC(O)c1cc(NC(=O)c2cnn3ccc(N[C@@H]4CCCC[C@@H]4N)nc23)cs1 (stereo partly drawn) [Example 276, 5-(((1R,2S)-2-Aminocyclohexyl)amino)-N-(5-(1-hydroxyethyl)thiophen-3-yl)pyrazolo[1,5-a]pyrimidine-3-carboxamide] | 64
11 | Cn1cc(NC(=O)c2cnn3ccc(N[C@@H]4CCCC[C@@H]4N)nc23)c(Br)n1 [Example 138, 5-{[(1R,2S)-2-aminocyclohexyl]amino}-N-(3-bromo-1-methyl-1H-pyrazol-4-yl)pyrazolo[1,5-a]pyrimidine-3-carboxamide trifluoroacetate] | 0.3
12 | CN1CCN(c2ccn3ncc(C(=O)Nc4cn(C)nc4C(F)(F)F)c3n2)CC1 [Example 34, 5-(4-methylpiperazin-1-yl)-N-[1-methyl-3-(trifluoromethyl)-1H-pyrazol-4-yl]pyrazolo[1,5-a]pyrimidine-3-carboxamide] | 269
13 | O=C(Nc1cn(C(F)F)nc1C(F)(F)F)c1cnn2ccc(N3CC4CCC3CN4)nc12 (centres unmarked) [Example 67, 5-(2,5-diazabicyclo[2.2.2]oct-2-yl)-N-[1-(difluoromethyl)-3-(trifluoromethyl)-1H-pyrazol-4-yl]pyrazolo[1,5-a]pyrimidine-3-carboxamide trifluoroacetate] | 74
14 | N[C@@H]1[C@H](Nc2ccn3ncc(C(=O)Nc4cscc4C(F)F)c3n2)CCCC1(F)F [Example 121, 5-{[(1R,2R)-2-amino-3,3-difluorocyclohexyl]amino}-N-[4-(difluoromethyl)thiophen-3-yl]pyrazolo[1,5-a]pyrimidine-3-carboxamide trifluoroacetate] | 124
15 | Cn1cc(NC(=O)c2cnn3ccc(N4CCN(CC5CC5)CC4)nc23)c(C(F)(F)F)n1 [Example 6, 5-[4-(cyclopropylmethyl)piperazin-1-yl]-N-[1-methyl-3-(trifluoromethyl)-1H-pyrazol-4-yl]pyrazolo[1,5-a]pyrimidine-3-carboxamide] | 681
16 | O=C(Nc1cscc1Br)c1cnn2ccc(N3CCCNCC3)nc12 [Example 123, N-(4-bromothiophen-3-yl)-5-(1,4-diazepan-1-yl)pyrazolo[1,5-a]pyrimidine-3-carboxamide trifluoroacetate] | 389
17 | Cn1cc(NC(=O)c2cnn3ccc(N4C[C@H]5CC[C@@H]4CN5)nc23)c(C(F)(F)F)n1 (single isomer, unassigned) [Example 77, 5-[1S,4S)- or (1R,4R)-2,5-diazabicyclo[2.2.2]oct-2-yl]-N-[1-methyl-3-(trifluoromethyl)-1H-pyrazol-4-yl]pyrazolo[1,5-a]pyrimidine-3-carboxamide trifluoroacetate] | 19
18 | N#Cc1sccc1NC(=O)c1cnn2ccc(N[C@@H]3CCCC[C@@H]3O)nc12 [Example 187, N-(2-cyanothiophen-3-yl)-5-{[(1R,2S)-2-hydroxycyclohexyl]amino} pyrazolo[1,5-a]pyrimidine-3-carboxamide] | 250
19 | Cn1cc(NC(=O)c2cnn3ccc(N4C[C@H](N)C[C@@H](F)C4)nc23)c(C(F)F)n1 [Example 253, 5-[(3R,5R)-3-amino-5-fluoropiperidin-1-yl]-N-[3-(difluoromethyl)-1-methyl-1H-pyrazol-4-yl]pyrazolo[1,5-a]pyrimidine-3-carboxamide trifluoroacetate] | 0.5
20 | Cn1cc(NC(=O)c2cnn3ccc(N[C@H]4CNCC[C@@H]4F)nc23)c(C(F)(F)F)n1 (single isomer, unassigned) [Example 233, 5-{[(3R,4R)- or (3S,4S)-4-fluoropiperidin-3-yl]amino}-N-[1-methyl-3-(trifluoromethyl)-1H-pyrazol-4-yl]pyrazolo[1,5-a]pyrimidine-3-carboxamide] | 0.5
21 | Cn1cc(NC(=O)c2cnn3ccc(N[C@@H]4CCCC[C@@H]4N4CCOCC4)nc23)c(C(F)(F)F)n1 [Example 264, N-(1-Methyl-3-(trifluoromethyl)-1H-pyrazol-4-yl)-5-(((1R,2S)-2-morpholinocyclohexyl)amino)pyrazolo[1,5-a]pyrimidine-3-carboxamide] | 19
22 | Cn1cc(NC(=O)c2cnn3ccc(N[C@H]4CNC[C@H](F)C4)nc23)c(C(F)(F)F)n1 [Example 260, 5-{[(3R,5R)-5-fluoropiperidin-3-yl]amino}-N-[1-methyl-3-(trifluoromethyl)-1H-pyrazol-4-yl]pyrazolo[1,5-a]pyrimidine-3-carboxamide] | 4
23 | CC(C)(C)n1cc(NC(=O)c2cnn3ccc(N4CCNCC4)nc23)c(C(F)(F)F)n1 [Example 46, N-[1-tert-butyl-3-(trifluoromethyl)-1H-pyrazol-4-yl]-5-piperazin-1-ylpyrazolo[1,5-a]pyrimidine-3-carboxamide trifluoroacetate] | 48
24 | N[C@H]1CCCC[C@H]1Nc1ccn2ncc(C(=O)Nc3ccncc3C(F)(F)F)c2n1 [Example 31, 5-{[(1R,2S)-2-aminocyclohexyl]amino}-N-[3-(trifluoromethyl)pyridin-4-yl]pyrazolo[1,5-a]pyrimidine-3-carboxamide formate] | 4
25 | CC(C)n1cc(NC(=O)c2cnn3ccc(N[C@@H]4CCCC[C@@H]4O)nc23)c(C(F)F)n1 [Example 199, N-[3-(difluoromethyl)-1-(1-methylethyl)-1H-pyrazol-4-yl]-5-{[(1R,2S)-2-hydroxycyclohexyl]amino} pyrazolo[1,5-a]pyrimidine-3-carboxamide] | 9
26 | Cc1nc(-c2nn(C)cc2NC(=O)c2cnn3ccc(N[C@@H]4CCCC[C@@H]4N)nc23)no1 [Example 288, 5-{[(1R,2S)-2-aminocyclohexyl]amino}-N-[1-methyl-3-(5-methyl-1,2,4-oxadiazol-3-yl)-1H-pyrazol-4-yl]pyrazolo[1,5-a]pyrimidine-3-carboxamide] | 10
27 | N#Cc1ccccc1NC(=O)c1cnn2ccc(N3CCNCC3)nc12 [Example 274, N-(2-cyanophenyl)-5-piperazin-1-ylpyrazolo[1,5-a]pyrimidine-3-carboxamide trifluoroacetate] | 660
28 | Cn1cc(NC(=O)c2cnn3ccc(N4CCC(F)(F)[C@H](N)C4)nc23)c(C(F)(F)F)n1 (single isomer, unassigned) [Example 192, 5-[(4R)- or (4S)-(3-amino-4,4-difluoropiperidin-1-yl)-N-[1-methyl-3-(trifluoroemthyl)-1H-pyrazol-4-yl]pyrazolo[1,5-a]pyrimidine-3-carboxamide trifluoroacetate] | 23

Same assay, conditions: IRAK4 IC50 (nM), IMAP fluorescence polarization, 0.5 nM GST tagged IRAK4, 100 μM ATP, 30 minutes at 25° C.

Row | Compound | IC50 [nM]
29 | Cn1cc(NC(=O)c2cnn3ccc(N[C@@H]4CCCC(O)[C@@H]4N)nc23)c(C(F)(F)F)n1 (single isomer, unassigned) [Example 201, 5-{[(1R,2R)- or (1S,2S)-2-amino-3-hydroxycyclohexyl]amino}-N-[1-methyl-3-(trifluoromethyl)-1H-pyrazol-4-yl]pyrazolo[1,5-a]pyrimidine-3-carboxamide] | 4
